Assays:
[1] = Binding affinity to Mycobacterium smegmatis ATCC 700084 CYP51 at pH7.5; set-up: species or system Mycolicibacterium smegmatis
[2] = target: T1, Sterol 14alpha-demethylase (Mycobacterium tuberculosis, UniProt P9WPP9)
T1 sequence (P9WPP9 whole entry): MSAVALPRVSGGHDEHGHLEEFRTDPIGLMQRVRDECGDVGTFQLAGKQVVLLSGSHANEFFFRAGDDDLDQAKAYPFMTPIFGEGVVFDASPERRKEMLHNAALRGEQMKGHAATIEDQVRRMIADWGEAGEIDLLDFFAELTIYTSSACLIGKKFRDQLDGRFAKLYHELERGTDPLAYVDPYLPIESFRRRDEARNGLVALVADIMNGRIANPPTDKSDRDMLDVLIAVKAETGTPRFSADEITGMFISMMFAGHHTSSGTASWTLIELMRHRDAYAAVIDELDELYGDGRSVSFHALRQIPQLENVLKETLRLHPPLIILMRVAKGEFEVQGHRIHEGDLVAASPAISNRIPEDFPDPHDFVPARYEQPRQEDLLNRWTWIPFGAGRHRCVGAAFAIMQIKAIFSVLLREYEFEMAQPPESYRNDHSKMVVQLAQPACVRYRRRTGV
Description: Binding affinity to Mycobacterium tuberculosis CYP51

[3] = Binding affinity to Mycobacterium smegmatis ATCC 700084 CYP164A2 in presence of 0.5 M NaCl at pH7.5; set-up: species or system Mycolicibacterium smegmatis
[4] = Binding affinity to Mycobacterium smegmatis ATCC 700084 CYP164A2 at pH7.5; set-up: species or system Mycolicibacterium smegmatis
[5] = system: Mycolicibacterium smegmatis; test: Selectivity ratio, ratio of Kd for Mycobacterium smegmatis ATCC 700084 CYP164A2 to Kd for Mycobacterium smegmatis ATCC 700084 CYP51
[6] = Selectivity ratio, ratio of Kd for Mycobacterium smegmatis ATCC 700084 CYP164A2 to Kd for Mycobacterium tuberculosis CYP121
[7] = Binding affinity to Mycobacterium smegmatis ATCC 700084 CYP51 in presence of 0.5 M NaCl at pH7.5; set-up: species or system Mycolicibacterium smegmatis
[8] = system: Mycolicibacterium smegmatis; test: Selectivity ratio of Kd for Mycobacterium smegmatis ATCC 700084 CYP164A2 in presence of 0.5 M NaCl to Kd for Mycobacterium smegmatis ATCC 700084 CYP164A2
[9] = Binding affinity to Mycobacterium smegmatis ATCC 700084 CYP164A2 in presence of 1 M NaCl; set-up: species or system Mycolicibacterium smegmatis
[10] = Binding affinity to Mycobacterium smegmatis ATCC 700084 CYP164A2 in presence of 2 M NaCl; set-up: species or system Mycolicibacterium smegmatis
[11] = Binding affinity to Mycobacterium smegmatis ATCC 700084 CYP164A2 in presence of 0.05 M NaCl; set-up: species or system Mycolicibacterium smegmatis
[12] = Binding affinity to Mycobacterium smegmatis ATCC 700084 CYP164A2 in presence of 0.1 M NaCl; set-up: species or system Mycolicibacterium smegmatis
[13] = Binding affinity to Mycobacterium smegmatis ATCC 700084 CYP164A2 in presence of 0.2 M NaCl; set-up: species or system Mycolicibacterium smegmatis
[14] = Binding affinity to Mycobacterium smegmatis ATCC 700084 CYP164A2 in presence of 0.3 M NaCl; set-up: species or system Mycolicibacterium smegmatis
[15] = system: Mycolicibacterium smegmatis; test: Selectivity ratio, ratio of Kd for Mycobacterium smegmatis ATCC 700084 CYP164A2 in presence of 0.3 M NaCl to Kd for Mycobacterium smegmatis ATCC 700084 CYP164A2
Cytochrome P450 130 = target: T2, Cytochrome P450 130 (Mycobacterium tuberculosis, UniProt P9WPN5); test: Binding affinity to Mycobacterium tuberculosis CYP130
T2 sequence (P9WPN5 whole entry): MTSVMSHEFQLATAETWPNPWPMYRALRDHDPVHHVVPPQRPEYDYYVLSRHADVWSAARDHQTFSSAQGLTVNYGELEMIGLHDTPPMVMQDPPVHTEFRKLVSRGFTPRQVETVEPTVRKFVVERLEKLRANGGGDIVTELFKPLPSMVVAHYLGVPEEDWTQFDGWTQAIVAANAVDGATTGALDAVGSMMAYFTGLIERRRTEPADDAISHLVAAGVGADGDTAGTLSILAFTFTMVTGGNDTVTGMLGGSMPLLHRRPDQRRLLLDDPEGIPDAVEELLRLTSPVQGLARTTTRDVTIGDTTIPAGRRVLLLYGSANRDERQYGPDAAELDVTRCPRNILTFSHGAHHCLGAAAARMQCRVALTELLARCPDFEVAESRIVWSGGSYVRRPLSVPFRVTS

[16] = target: T3, Lanosterol 14-alpha demethylase (Bos taurus, UniProt Q4PJW3); test: Binding affinity to bovine CYP51
T3 sequence (Q4PJW3 whole entry): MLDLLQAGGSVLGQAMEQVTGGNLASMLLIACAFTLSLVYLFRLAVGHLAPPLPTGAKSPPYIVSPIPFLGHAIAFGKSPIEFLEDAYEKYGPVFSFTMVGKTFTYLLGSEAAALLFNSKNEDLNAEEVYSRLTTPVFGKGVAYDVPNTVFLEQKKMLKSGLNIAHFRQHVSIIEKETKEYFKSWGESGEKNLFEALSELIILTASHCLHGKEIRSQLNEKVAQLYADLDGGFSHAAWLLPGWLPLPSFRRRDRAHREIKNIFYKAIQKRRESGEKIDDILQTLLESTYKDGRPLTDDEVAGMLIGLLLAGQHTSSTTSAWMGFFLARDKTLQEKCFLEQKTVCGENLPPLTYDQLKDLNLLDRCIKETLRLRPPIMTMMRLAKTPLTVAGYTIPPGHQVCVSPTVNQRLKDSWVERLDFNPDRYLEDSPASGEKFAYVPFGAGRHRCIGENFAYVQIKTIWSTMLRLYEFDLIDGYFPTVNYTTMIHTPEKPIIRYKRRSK

Mycocyclosin synthase = target: T4, Mycocyclosin synthase (Mycobacterium tuberculosis, UniProt P9WPP7); test: Binding affinity to Mycobacterium tuberculosis CYP121
T4 sequence (P9WPP7 whole entry): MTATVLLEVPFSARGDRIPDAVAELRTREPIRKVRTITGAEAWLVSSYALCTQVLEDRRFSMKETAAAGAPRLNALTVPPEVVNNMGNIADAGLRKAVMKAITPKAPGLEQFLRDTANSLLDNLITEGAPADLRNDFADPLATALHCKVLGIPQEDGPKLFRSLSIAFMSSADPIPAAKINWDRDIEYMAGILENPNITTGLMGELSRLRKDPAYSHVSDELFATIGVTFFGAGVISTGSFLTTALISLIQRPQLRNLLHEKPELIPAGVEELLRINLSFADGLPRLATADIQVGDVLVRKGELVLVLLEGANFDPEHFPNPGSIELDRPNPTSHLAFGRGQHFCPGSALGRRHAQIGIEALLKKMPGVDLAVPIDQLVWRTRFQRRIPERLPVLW

**Q.** With `Clc1ccc(COC(Cn2ccnc2)c2ccc(Cl)cc2Cl)c(Cl)c1` (stereo not given) [MICONAZOLE] as the compound, how does the Kd [1] read?
**A.** 1.16 µM

**Q.** And the Kd [2]?
**A.** 0.2 µM

**Q.** And the Kd ([3]; read-out: Kd)?
**A.** 5.57 µM

**Q.** What about the Kd [4] of the same compound?
**A.** 2.48 µM

**Q.** What about the Ratio [5] of the same compound?
**A.** 2

**Q.** What about the Ratio [6] of the same compound?
**A.** 17

**Q.** And the Kd [7]?
**A.** 0.94 µM

**Q.** What does the source list for `C[C@@H](c1ncncc1F)[C@](O)(Cn1cncn1)c1ccc(F)cc1F` [VORICONAZOLE]?
**A.** Ratio [8]: 3; Kd [1]: 5.94 µM; Kd [9]: 9.85 µM; Kd [10]: 13.2 µM; Kd [11]: 8.36 µM; Kd [12]: 17.9 µM; Kd ([3]; read-out: Kd): 19.7 µM; Kd [4]: 3.24 µM; Kd [13]: 20.1 µM; Kd [14]: 34 µM; Kd [7]: 4.57 µM; Ratio [15]: 12

**Q.** What does the source list for `CCC(C)n1ncn(-c2ccc(N3CCN(c4ccc(OCC5COC(Cn6cncn6)(c6ccc(Cl)cc6Cl)O5)cc4)CC3)cc2)c1=O` (stereo not given) [ITRACONAZOLE]?
**A.** Ratio [8]: 3; Kd [1]: 1.26 µM; Kd ([3]; read-out: Kd): 1.11 µM; Kd [4]: 0.78 µM; Kd [7]: 3 µM

**Q.** With `Clc1ccccc1C(c1ccccc1)(c1ccccc1)n1ccnc1` [CLOTRIMAZOLE] as the compound, how does the Kd [1] read?
**A.** 0.62 µM

**Q.** And the Kd (Cytochrome P450 130)?
**A.** 13.3 µM

**Q.** And the Kd ([3]; read-out: Kd)?
**A.** 2.66 µM

**Q.** And the Kd [4]?
**A.** 1.2 µM

**Q.** And the Kd [7]?
**A.** 0.43 µM

**Q.** For `Clc1ccc(COC(Cn2ccnc2)c2ccc(Cl)cc2Cl)cc1` (stereo not given) [ECONAZOLE], which Kd [1] is on record?
**A.** 0.88 µM

**Q.** And the Kd [2]?
**A.** 0.2 µM

**Q.** What about the Kd [3] of the same compound?
**A.** 9.31 µM

**Q.** What about the Kd [4] of the same compound?
**A.** 2.52 µM

**Q.** What about the Ratio [5] of the same compound?
**A.** 2

**Q.** And the Ratio [6]?
**A.** 17

**Q.** And the Kd [7]?
**A.** 1.66 µM

**Q.** For `CC(=O)N1CCN(c2ccc(OCC3COC(Cn4ccnc4)(c4ccc(Cl)cc4Cl)O3)cc2)CC1` (stereo not given) [KETOCONAZOLE], which Ratio [8] is on record?
**A.** 3

**Q.** And the Kd [1]?
**A.** 7.45 µM

**Q.** And the Kd [16]?
**A.** 0.32 µM

**Q.** And the Kd ([3]; read-out: Kd)?
**A.** 7.48 µM

**Q.** And the Kd [4]?
**A.** 5.69 µM

**Q.** And the Kd [7]?
**A.** 4.59 µM

**Q.** With `OC(Cn1cncn1)(Cn1cncn1)c1ccc(F)cc1F` [FLUCONAZOLE] as the compound, how does the Kd [1] read?
**A.** 19.5 µM

**Q.** And the Kd (Mycocyclosin synthase)?
**A.** 6 µM

**Q.** What about the Kd [7] of the same compound?
**A.** 5.94 µM

— ChEMBL document CHEMBL1671646, “Identification, characterization, and azole-binding properties of Mycobacterium smegmatis CYP164A2, a homolog of ML2088, the sole cytochrome P450 gene of Mycobacterium leprae” (Antimicrob Agents Chemother, 2009)
